Drawing on patent US11155523B2, “Biphenyl compound as CCR2/CCR5 receptor antagonist” (Medshine Discovery Inc., priority 2016, dated 2021), this text covers IC50 for 39 compounds.

As a reminder, the IC50 is the concentration at which inhibition is half-maximal.

In one experiment the target is T1, CCR2 (Homo sapiens, UniProt P41597).
T1 construct: expressed in transfected cells; host or cells: HEK293, clone C7, passage P6
As to the kind of experiment: CCR2 in vitro test: intracellular calcium signal detected by FLIPR. It counts as cell-based. To be noted: HEK293 cells expressing CCR2, agonist MCP-1 at EC80, calcium signal. As to the method: (§1) Experimental Example 1: CCR2/CCR5 In Vitro Test
(§2) The intracellular calcium signal was detected by FLIPR, and the IC50 value of the compound was used as an index to evaluate the inhibitory effect of the compound on CCR2 and CCR5 receptors.
(§3) 1. Cell line: The cells were inoculated and incubated in a 5% CO2 incubator at 37° C. overnight.
(§4) CCR2/CCR5 density: 1 M (20 k/well)
(§5) 2. Reagents: Fluo-4 Direct, (Invitrogen, Cat #F10471)
(§6) The compound was dissolved in DMSO to prepare a 10 mM solution, and the compound solution was placed in a nitrogen box.
(§7) Agonist reference compounds:
(§8) Preparation of probenecid in FLIPR assay buffer: 1 mL of FLIPR assay buffer was added to […] of probenecid to prepare a 250 mM solution, which is prepared fresh daily.
(§9) 2× (8 μM) Fluo-4 Direct™ Loading Buffer (per 10 mL) • Thaw a bottle of Fluo-4 Direct™ crystal (F10471). • Add 10 mL of FLIPR assay buffer to the vial. • Add 0.2 mL of probenecid to each 10 mL of Fluo-Direct. The final concentration of the assay was 2.5 mM. • Rotate it and place for >5 minutes (in absence of light). • Prepare fresh daily.
(§10) MCP-1 was diluted in FLIPR assay buffer 1:2 into 10 points, starting at 0.5 uM (final 100 nM). RANTES was diluted in FLIPR assay buffer 1:3 into 10 points, starting at 0.5 uM (final 100 nM). 20 uL of serially diluted compound buffer was added to each well of the DRC plate according to the compound plate map.
(§11) Standard compound was diluted in DMSO 1:3 into 11 points, starting at 1 mM. Test compound was diluted in DMSO 1:3 into 11 points, starting at 2 mM. 250 nL of compound solution was transferred into a cell plate using Echo (Greiner #781946).
(§12) (c) Take the cell plate out of the incubator, and gently dispense 20 uL of 2× Fluo-4 Direct wash-free loading buffer into a 384-well cell culture plate using a pipette. The final cell plate is 40 μL in volume.
(§13) (d) Incubate for 50 minutes at 37° C. under 5% CO2, and for 10 minutes at room temperature.
(§14) (e) Take the cell plate out of the incubator, and place it in FLIPR. Place the composite plate and the tip box in FLIPR.
(§15) (f) For DRC plate: • 1) Run the program on FLIPRTETRA. • 2) Read the fluorescent signal. • 3) Transfer 10 μL of compound from the DRC plate to the cell plate. • 4) Read the fluorescent signal. • 5) Calculate the “maximum−minimum” from Read 90 to the maximum allowed. Use FLIPR to calculate the EC80 value of each cell line. • 6) Prepare 5×EC80 concentration of the agonist reference compound.
(§16) (g) For the composite plate (1-add): • 1) Run the program on FLIPRTETRA. • 2) Transfer 10 μl, of 5×EC80 concentration of the agonist reference compound from the composite plate to the cell plate. • 3) Read the fluorescent signal. • 4) Calculate the “maximum−minimum” from Read 90 to the maximum allowed.
(§17) (h) Analyze the data using Prism, and calculate the IC50 value of the compound.

The target in a further experiment is T2, CCR5 (Homo sapiens, UniProt P51681).
T2 construct: expressed in transfected cells; host or cells: HEK293, clone C13, passage P4
As to the kind of experiment: CCR5 in vitro test: intracellular calcium signal detected by FLIPR. It counts as cell-based. To be noted: HEK293 cells expressing CCR5, agonist RANTES at EC80, calcium signal. As to the method:
as §1, §2, §3, §4, §5, §6, §7, §8, §9, §10, §11, §12, §13, §14, §15, §16, §17

T2 sequence (P51681 whole entry, species assumed): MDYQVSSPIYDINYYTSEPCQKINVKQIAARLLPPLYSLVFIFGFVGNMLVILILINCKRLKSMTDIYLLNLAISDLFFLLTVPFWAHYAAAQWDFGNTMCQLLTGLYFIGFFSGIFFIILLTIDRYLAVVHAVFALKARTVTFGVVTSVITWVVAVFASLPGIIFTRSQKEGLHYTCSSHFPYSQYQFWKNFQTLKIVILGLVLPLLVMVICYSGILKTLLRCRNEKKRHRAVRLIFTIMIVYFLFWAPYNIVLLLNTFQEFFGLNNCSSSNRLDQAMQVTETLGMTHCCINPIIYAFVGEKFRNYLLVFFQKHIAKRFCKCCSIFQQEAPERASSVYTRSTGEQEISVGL
T1 sequence (P41597 whole entry, species assumed): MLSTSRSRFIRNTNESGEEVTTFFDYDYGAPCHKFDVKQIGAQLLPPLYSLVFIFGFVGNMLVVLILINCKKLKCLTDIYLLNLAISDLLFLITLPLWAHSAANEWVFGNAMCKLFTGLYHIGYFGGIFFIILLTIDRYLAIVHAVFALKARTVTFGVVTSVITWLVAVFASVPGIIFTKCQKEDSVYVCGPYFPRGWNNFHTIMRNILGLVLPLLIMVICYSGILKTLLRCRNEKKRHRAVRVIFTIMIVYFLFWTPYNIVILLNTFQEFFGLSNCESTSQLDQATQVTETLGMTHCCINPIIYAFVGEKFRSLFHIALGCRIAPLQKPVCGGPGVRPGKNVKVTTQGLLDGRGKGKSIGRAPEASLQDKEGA

Consider `CCCCOCCOc1ccc(-c2cccc(/C=C/C(=O)Nc3ccc([S@@+]([O-])Cc4cncn4CCC)cc3)c2)cc1` [WX001], for which the results for the 50% inhibitory concentration (IC50) at CCR2 and on CCR5 were 29.9 nM and 9.3 nM, respectively.

Regarding `CCCn1cncc1C[S@+]([O-])c1ccc(NC(=O)/C=C/c2cccc(-c3ccc(OC)cc3)c2)cc1` [WX002], the IC50 at CCR2 came out at 319 nM; on CCR5, 113 nM.

Regarding `CCCCOCCOc1ccc(-c2ccc(F)c(/C=C/C(=O)Nc3ccc([S@@+]([O-])Cc4cncn4CCC)cc3)c2)cc1` [WX003], the IC50 on CCR2 was 21.6 nM; on CCR5, 3 nM.

With `CCCn1cncc1C[S@+]([O-])c1ccc(NC(=O)/C=C/c2cccc(-c3ccc(OCC)cc3)c2)cc1` [WX004], the IC50 at CCR2 stood at 153 nM; at CCR5, 7.1 nM.

With `CCCCOCCOc1ccc(-c2ccc(CC)c(/C=C/C(=O)Nc3ccc([S@@+]([O-])Cc4cncn4CCC)cc3)c2)cc1` [WX005], the IC50 at CCR2 was determined as 12.1 nM; at CCR5, 3.4 nM.

As for `CCCCOCCOc1ccc(-c2ccc(C(C)C)c(/C=C/C(=O)Nc3ccc([S@@+]([O-])Cc4cncn4CCC)cc3)c2)cc1` [WX006], the IC50 at CCR2 is 32.1 nM; at CCR5, 3.3 nM.

Turning to `CCCn1cncc1C[S@+]([O-])c1ccc(NC(=O)/C=C/c2cccc(-c3ccc(OC(C)C)cc3)c2)cc1` [WX007], the IC50 at CCR2 is 65.2 nM; on CCR5 it was 6.4 nM.

Take `CCCCOCCOc1ccc(-c2cccc(/C=C(\C)C(=O)Nc3ccc([S@@+]([O-])Cc4cncn4CCC)cc3)c2)cc1` [WX008]: the IC50 on CCR2 was found to be 17.3 nM; on CCR5 it was 1.5 nM.

`CCCCOc1ccc(-c2cccc(/C=C/C(=O)Nc3ccc([S@@+]([O-])Cc4cncn4CCC)cc3)c2)cc1` [WX009]: the IC50 at CCR2 came out at 63.2 nM; at CCR5 it was 9.4 nM.

In the case of `CCCCOCCOc1ccc(-c2cccc(/C=C/C(=O)Nc3ccc([S@@+]([O-])Cc4nncn4CCC)cc3)c2)cc1` [WX010], the IC50 came out at 214 nM at CCR2 and 17.2 nM at CCR5.

Turning to `CCCCOCCOc1ccc(-c2ccc(C)c(/C=C/C(=O)Nc3ccc([S@@+]([O-])Cc4cncn4CCC)cc3)c2)cc1` [WX011], the figures for the IC50 on CCR2 and on CCR5 were 61 nM and 2.6 nM, respectively.

Turning to `CCCCOCCOc1ccc(-c2cccc(/C(C)=C/C(=O)Nc3ccc([S@@+]([O-])Cc4cncn4CCC)cc3)c2)cc1` [WX012], the IC50 on CCR2 came to 51 nM; at CCR5, 5.4 nM.

Consider `CCCn1cncc1C[S@+]([O-])c1ccc(NC(=O)/C=C/c2cccc(-c3ccc(OCCOC)cc3)c2)cc1` [WX013], for which the IC50 on CCR2 stood at 984 nM; at CCR5 it was 14.2 nM.

Regarding `CCCCOCCOc1ccc(-c2ccc(F)c(/C(C)=C/C(=O)Nc3ccc([S@@+]([O-])Cc4cncn4CCC)cc3)c2)cc1` [WX014], the results for the IC50 on CCR2 and on CCR5 were 258 nM and 7.9 nM, respectively.

As for `CCCOc1ccc(-c2cccc(/C=C(\C)C(=O)Nc3ccc([S+]([O-])Cc4nncn4CCC)cc3)c2)cc1` (centres unmarked) [WX015], the figures for the concentration for half-maximal inhibition (IC50) on CCR2 and at CCR5 were 62 nM and 65.1 nM, respectively.

Take `CCCCOCCOc1ccc(-c2ccc(Cl)c(/C=C/C(=O)Nc3ccc([S@@+]([O-])Cc4cncn4CCC)cc3)c2)cc1` [WX016]: the IC50 was 75.1 nM on CCR2 and 4.5 nM on CCR5.

`CCCCOc1ccc(-c2ccc(OC(F)F)c(/C=C/C(=O)Nc3ccc([S@@+]([O-])Cc4cncn4CCC)cc3)c2)cc1` [WX018]: the results for the IC50 on CCR2 and at CCR5 were 43.5 nM and 7.3 nM, respectively.

For the compound `CCCCOCCOc1ccc(-c2cccc(/C=C/C(=O)Nc3ccc([S+]([O-])Cc4cncn4CC)cc3)c2)cc1` (centres unmarked) [WX019], the IC50 at CCR2 worked out at 9.3 nM; at CCR5 it was 50.9 nM.

Turning to `CCCCOc1ccc(-c2ccc(Cl)c(/C=C/C(=O)Nc3ccc([S+]([O-])Cc4cncn4CC)cc3)c2)cc1` (centres unmarked) [WX020], the values for the IC50 on CCR2 and at CCR5 were 68.1 nM and 8.2 nM, respectively.

Take `CCCCOc1ccc(-c2ccc(Cl)c(/C=C/C(=O)Nc3ccc([S+]([O-])Cc4cncn4CC4CC4)cc3)c2)cc1` (centres unmarked) [WX021]: the IC50 on CCR2 worked out at 64.5 nM; at CCR5, 8.8 nM.

Regarding `CCCn1cncc1C[S@+]([O-])c1ccc(NC(=O)/C=C/c2cc(-c3ccc(OCCCF)cc3)ccc2Cl)cc1` [WX022], the IC50 at CCR2 was 205 nM; on CCR5, 10.1 nM.

Consider `CCCCOCCOc1ccc(-c2cccc(/C=C/C(=O)Nc3ccc([S+]([O-])Cc4cncn4CC4CC4)cc3)c2)cc1` (centres unmarked) [WX023], for which the IC50 on CCR2 was 37.1 nM; at CCR5, 53.3 nM.

As to `CCCCOc1ccc(-c2ccc(OCCCF)c(/C=C/C(=O)Nc3ccc([S@@+]([O-])Cc4cncn4CCC)cc3)c2)cc1` [WX024], the IC50 on CCR2 amounted to 63.1 nM; at CCR5, 1.3 nM.

In the case of `CCCCOc1ccc(-c2ccc(Cl)c(/C=C/C(=O)Nc3ccc([S@@+]([O-])Cc4cncn4CCC)cc3)c2)cc1` [WX025], the values for the IC50 on CCR2 and at CCR5 were 127 nM and 7.4 nM, respectively.

Consider `CCCCOc1ccc(-c2ccc(OCC(F)F)c(/C=C/C(=O)Nc3ccc([S@@+]([O-])Cc4cncn4CCC)cc3)c2)cc1` [WX026], for which the IC50 was 175 nM at CCR2 and 3.2 nM on CCR5.

For the compound `CCCCOc1ccc(-c2ccc(Cl)c(/C=C/C(=O)Nc3ccc([S+]([O-])Cc4cncn4CCCC)cc3)c2)cc1` (centres unmarked) [WX027], the IC50 came to 207 nM at CCR2 and 13.6 nM at CCR5.

As for `CCCCOCCOc1ccc(-c2cccc(/C=C/C(=O)Nc3ccc([S+]([O-])Cc4cncn4CCCC)cc3)c2)cc1` (centres unmarked) [WX028], the IC50 at CCR2 amounted to 86.4 nM; on CCR5, 15.5 nM.

For the compound `CCCCOCCOc1ccc(-c2cccc(/C=C/C(=O)Nc3ccc([S+]([O-])Cc4cncn4CC(C)C)cc3)c2)cc1` (centres unmarked) [WX029], the IC50 on CCR2 was 167 nM; at CCR5, 34.2 nM.

Consider `CCCCOc1ccc(-c2ccc(Cl)c(/C=C/C(=O)Nc3ccc([S+]([O-])Cc4cncn4CC(C)C)cc3)c2)cc1` (centres unmarked) [WX030], for which the IC50 came out at 300 nM on CCR2 and 15.9 nM on CCR5.

For the compound `CCCCOCCOc1ccc(-c2cccc(/C=C/C(=O)Nc3ccc(S(=O)(=O)Cc4cncn4CCC)cc3)c2)cc1` [WX031], the IC50 at CCR2 worked out at 237 nM; on CCR5, 95.9 nM.

As for `CCCCOCCOc1ccc(-c2ccc(OCC)c(/C=C/C(=O)Nc3ccc([S@@+]([O-])Cc4cncn4CCC)cc3)c2)cc1` [WX032], the IC50 on CCR2 is 28.6 nM; on CCR5 it was 8.1 nM.

On to `CCCCOCCOc1ccc(-c2ccc(OC(C)C)c(/C=C/C(=O)Nc3ccc([S@@+]([O-])Cc4cncn4CCC)cc3)c2)cc1` [WX033], for which the IC50 on CCR2 is 56.3 nM; on CCR5 it was 11.8 nM.

Consider `CCCCOCCOc1ccc(-c2ccc(OCC(C)C)c(/C=C/C(=O)Nc3ccc([S@@+]([O-])Cc4cncn4CCC)cc3)c2)cc1` [WX034], for which the IC50 turned out to be 30 nM at CCR2 and 10 nM at CCR5.

As to `CCCCOCCOc1ccc(-c2cc(/C=C/C(=O)Nc3ccc([S@@+]([O-])Cc4cncn4CCC)cc3)c(OC)c(OC)c2)cc1` [WX035], the IC50 at CCR2 was 215 nM; on CCR5, 16.1 nM.

Take `CCCCOCCOc1ccc(-c2ccc(OC)c(/C=C/C(=O)Nc3ccc([S@@+]([O-])Cc4cncn4CCC)cc3)c2)c(C)c1` [WX036]: the IC50 at CCR2 is 64.9 nM; on CCR5, 13.3 nM.

As for `CCCn1cncc1C[S@+]([O-])c1ccc(NC(=O)/C=C/c2cccc(-c3ccc(N4CCCC4)cc3)c2)cc1` [WX037], the IC50 is 62.2 nM at CCR2 and 44.2 nM on CCR5.

For the compound `CCCCOCCOc1ccc(-c2ccc(OC)c(/C=C/C(=O)Nc3ccc([S+]([O-])Cc4c(C)ncn4CCC)cc3)c2)cc1` (centres unmarked) [WX038], the figures for the IC50 on CCR2 and on CCR5 were 42.5 nM and 12.5 nM, respectively.

On to `CCCCOCCOc1ccc(-c2ccc(OC)c(/C=C/C(=O)Nc3ccc([S@+]([O-])Cc4cncn4CC)cc3)c2)cc1` [WX039], for which the IC50 on CCR2 was 70.1 nM; on CCR5, 760 nM.

In the case of `CCCCOCCOc1ccc(-c2cc(F)c(OCC)c(/C=C/C(=O)Nc3ccc([S@+]([O-])Cc4c(C)ncn4CC)cc3)c2)cc1` [WX089], the IC50 at CCR2 was 15 nM.
